Data published in patent US7427620B2, “Azole derivative useful as antifungal agents with reduced interaction with metabolic cytochromes” (Italfarmaco SPA, priority 2003, dated 2008).
≈ marks a conversion by molar mass, not a printed value. Read-outs that look alike come from different tables or passages of the source.

Assays:
[1] = tested on: Aspergillus fumigatus; experiment: Antifungal activity, liquid phase microdilution (NCCLS M27/M38-P); type: cell-based; set-up: IC50 (minimum concentration to bring about 50% inhibition): unit not given here; details: for IC50: Aspergillus fumigatus
Protocol: (§1) Experiment A: Antifungal Activity of Compounds of the Formula (I)
(§2) The antifungal activity of the compounds of the formula (I) was determined using various strains of yeast and filamentous fungi. […] Table no.

[2] = target: T1, CYP3A4 (Homo sapiens, UniProt P08684); experiment: Inhibition of human cytochromes, fluorescent substrates; type: in vitro ADME; details: isoenzyme (Gentest), 37° C.
T1 construct: purchased Gentest
Protocol: (§3) Experiment B: Inhibition of Human Cytochromes by Compounds of the Formula (I)
(§4) The individual isoenzymes (Gentest) and the respective substrates were incubated in 96 well plates in buffer containing […] at 37° C. in the presence or absence of the compound under investigation. […] The degree of inhibition of each individual isoenzyme by known inhibitors was also assessed as a positive control.

[3] = tested on: Candida albicans; experiment: Antifungal activity, liquid phase microdilution (NCCLS M27/M38-P); type: cell-based
Protocol: as §1, §2

[4] = tested on: Candida glabrata; experiment: as above; type: cell-based; details: for IC50 (minimum concentration to bring about 50% inhibition): Candida glabrata strain 02-0902
Protocol: as §1, §2

[5] = tested on: Candida parapsilosis; experiment: as above; type: cell-based; details: for IC50 (minimum concentration to bring about 50% inhibition): Candida parapsilosis strain ATCC22019
Protocol: as §1, §2

[6] = target: T2, CYP2D6 (Homo sapiens, UniProt P10635); experiment: Inhibition of human cytochromes, fluorescent substrates; type: in vitro ADME; details: isoenzyme (Gentest), 37° C.
T2 construct: purchased Gentest
Protocol: as §3
as §4, with “Inhibition of the enzymatic activity of the most significant isoforms of human cytochromes by the compounds of the formula (I) was measured by using specific substrates which become fluorescent as a result of the metabolic action of a particular cytochrome isoform. The individual” for “The individual”

[7] = target: T3, CYP1A2 (Homo sapiens, UniProt P05177); experiment: as above; type: in vitro ADME; details: isoenzyme (Gentest), 37° C.
T3 construct: purchased Gentest
T3 sequence (P05177 1-516): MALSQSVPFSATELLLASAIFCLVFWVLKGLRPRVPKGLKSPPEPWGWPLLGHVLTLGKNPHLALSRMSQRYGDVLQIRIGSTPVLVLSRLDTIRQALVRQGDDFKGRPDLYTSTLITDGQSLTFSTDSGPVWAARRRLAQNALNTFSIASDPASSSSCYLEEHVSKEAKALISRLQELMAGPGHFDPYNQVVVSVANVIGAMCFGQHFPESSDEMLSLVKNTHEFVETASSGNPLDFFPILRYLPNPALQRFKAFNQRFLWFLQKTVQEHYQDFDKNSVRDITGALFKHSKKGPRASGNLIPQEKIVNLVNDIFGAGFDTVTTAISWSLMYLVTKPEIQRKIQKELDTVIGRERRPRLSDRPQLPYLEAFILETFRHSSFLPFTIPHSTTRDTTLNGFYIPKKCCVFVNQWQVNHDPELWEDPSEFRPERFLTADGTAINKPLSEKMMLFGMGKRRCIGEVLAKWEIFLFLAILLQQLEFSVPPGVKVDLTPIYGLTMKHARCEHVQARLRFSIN
Protocol: as §3
as §4, with “Inhibition of the enzymatic activity of the most significant isoforms of human cytochromes by the compounds of the formula (I) was measured by using specific substrates which become fluorescent as a result of the metabolic action of a particular cytochrome isoform. The individual” for “The individual”

[8] = target: T4, CYP2C19 (Homo sapiens, UniProt P33261); experiment: as above; type: in vitro ADME; details: isoenzyme (Gentest), 37° C.
T4 construct: purchased Gentest
Protocol: as §3
as §4, with “Inhibition of the enzymatic activity of the most significant isoforms of human cytochromes by the compounds of the formula (I) was measured by using specific substrates which become fluorescent as a result of the metabolic action of a particular cytochrome isoform. The individual” for “The individual”

[9] = target: T5, CYP2C9 (Homo sapiens, UniProt P11712); experiment: as above; type: in vitro ADME; details: isoenzyme (Gentest), 37° C.
T5 construct: purchased Gentest
Protocol: as §3
as §4, with “Inhibition of the enzymatic activity of the most significant isoforms of human cytochromes by the compounds of the formula (I) was measured by using specific substrates which become fluorescent as a result of the metabolic action of a particular cytochrome isoform. The individual” for “The individual”

[10] = tested on: Candida albicans; experiment: Mouse model of systemic candidiasis, survival; type: in vivo, CD1 mice; details: 50 mg/kg/day orally (25 mg/kg twice daily) for 10 days
Protocol: Experiment C: Study of the Efficacy of Compounds of the Formula (I) in a Mouse Model of Systemic Candidiasis.
The C. albicans isolate was cultured for 24 h in yeast dextrose broth. The blastospores were recovered by centrifugation, repeatedly washed in sterile saline solution and the inoculum adjusted to the desired concentration. The inoculum was verified by a subsequent count of CFU/ml on Sabouraud plates.
The mice were then inoculated intravenously (0.2 ml/mouse).
24 hours after inoculation with C. albicans, the animals were randomised into the following treatment groups (10 mice/group): • 1. […] Compound under investigation: 50 mg/kg/day (two 25 mg/kg treatments twice daily at 12 hour intervals) • 3. Compound under investigation; 10 mg/kg/day (two 5 mg/kg treatments twice daily at 12 hour intervals) • 4. Control (placebo)
The compounds were administered orally (suspension in PEG 200, 0.2 ml/mouse) for 10 consecutive days and the animals were observed until day 30. The survival curves between the various treatment groups and between these groups and the control group were evaluated using the Kaplan-Meier method.

[11] = Aspergillus fumigatus strain 99-2135
[12] = Aspergillus fumigatus strain 34

T1 sequence (P08684 whole entry): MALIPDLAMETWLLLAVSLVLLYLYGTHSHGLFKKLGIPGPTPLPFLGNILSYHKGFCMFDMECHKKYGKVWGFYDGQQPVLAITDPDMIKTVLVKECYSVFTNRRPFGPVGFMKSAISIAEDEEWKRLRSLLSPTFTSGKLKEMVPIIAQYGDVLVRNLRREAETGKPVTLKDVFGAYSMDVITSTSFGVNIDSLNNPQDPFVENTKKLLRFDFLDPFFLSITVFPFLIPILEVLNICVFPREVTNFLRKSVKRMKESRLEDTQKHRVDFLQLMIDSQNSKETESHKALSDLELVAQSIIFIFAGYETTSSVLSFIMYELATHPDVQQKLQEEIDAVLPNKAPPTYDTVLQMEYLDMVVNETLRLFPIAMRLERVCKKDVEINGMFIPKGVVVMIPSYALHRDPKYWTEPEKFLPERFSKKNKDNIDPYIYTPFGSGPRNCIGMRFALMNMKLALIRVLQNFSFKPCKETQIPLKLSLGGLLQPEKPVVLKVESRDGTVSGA
T4 sequence (P33261 whole entry): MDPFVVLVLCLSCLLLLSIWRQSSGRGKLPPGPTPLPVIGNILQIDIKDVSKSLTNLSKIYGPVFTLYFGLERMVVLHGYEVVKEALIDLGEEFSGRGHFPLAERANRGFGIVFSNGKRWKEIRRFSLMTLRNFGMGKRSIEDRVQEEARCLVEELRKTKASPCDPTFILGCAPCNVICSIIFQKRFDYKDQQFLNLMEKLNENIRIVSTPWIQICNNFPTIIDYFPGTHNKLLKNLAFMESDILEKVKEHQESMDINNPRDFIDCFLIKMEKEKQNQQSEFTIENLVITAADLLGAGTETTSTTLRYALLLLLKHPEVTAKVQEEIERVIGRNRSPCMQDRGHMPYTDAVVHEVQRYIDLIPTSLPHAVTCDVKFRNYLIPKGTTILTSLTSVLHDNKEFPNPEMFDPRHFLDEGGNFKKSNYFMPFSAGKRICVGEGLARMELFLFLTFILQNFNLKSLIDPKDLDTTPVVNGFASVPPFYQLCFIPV
T2 sequence (P10635 whole entry): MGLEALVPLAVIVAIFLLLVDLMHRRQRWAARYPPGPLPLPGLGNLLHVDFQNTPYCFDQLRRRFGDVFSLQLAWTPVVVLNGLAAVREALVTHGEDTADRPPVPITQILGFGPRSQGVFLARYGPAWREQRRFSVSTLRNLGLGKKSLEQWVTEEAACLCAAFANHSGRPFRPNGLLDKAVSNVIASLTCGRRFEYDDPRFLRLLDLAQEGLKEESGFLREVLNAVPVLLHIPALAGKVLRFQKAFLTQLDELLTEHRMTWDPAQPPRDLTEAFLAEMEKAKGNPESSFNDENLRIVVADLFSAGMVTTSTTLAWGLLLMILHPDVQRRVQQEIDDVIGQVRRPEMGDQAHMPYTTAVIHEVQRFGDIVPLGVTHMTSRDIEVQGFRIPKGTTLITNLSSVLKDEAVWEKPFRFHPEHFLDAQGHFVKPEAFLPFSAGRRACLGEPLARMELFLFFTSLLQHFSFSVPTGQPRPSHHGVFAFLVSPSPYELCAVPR
T5 sequence (P11712 whole entry): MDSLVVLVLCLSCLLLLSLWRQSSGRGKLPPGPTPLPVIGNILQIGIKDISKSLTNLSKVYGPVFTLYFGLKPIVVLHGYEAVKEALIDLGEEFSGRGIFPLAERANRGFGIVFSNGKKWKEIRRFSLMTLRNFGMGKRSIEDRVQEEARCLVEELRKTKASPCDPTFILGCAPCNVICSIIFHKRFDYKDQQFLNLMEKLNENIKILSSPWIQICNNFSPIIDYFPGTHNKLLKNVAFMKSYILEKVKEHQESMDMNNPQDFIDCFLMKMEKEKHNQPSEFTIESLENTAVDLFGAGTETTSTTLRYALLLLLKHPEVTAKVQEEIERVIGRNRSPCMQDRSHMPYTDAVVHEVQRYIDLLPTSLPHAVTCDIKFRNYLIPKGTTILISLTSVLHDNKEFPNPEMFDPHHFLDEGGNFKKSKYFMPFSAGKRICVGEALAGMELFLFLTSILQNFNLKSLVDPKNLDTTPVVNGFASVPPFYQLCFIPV

Row | Compound | IC50 (minimum concentration to bring about 50% inhibition) [1, 11] | IC50 [2] | IC50 (minimum concentration to bring about 50% inhibition) ([3]; Candida albicans strain gen-45) | IC50 (minimum concentration to bring about 50% inhibition) [4] | IC50 (minimum concentration to bring about 50% inhibition) [5] | IC50 [6] | IC50 [7] | IC50 [8] | IC50 [9] | IC50 (minimum concentration to bring about 50% inhibition) ([3]; Candida albicans strain 21) | also measured
1 | CC[C@H](C)n1ncn(-c2ccc(N3CCN(c4ccc(OC[C@H]5CO[C@@](Cn6cncn6)(c6ccccn6)O5)cc4)CC3)cc2)c1=O (relative stereo) [Example 13, cis(−)-4-{4-[4-{4-[2-(pyridin-2-yl)-2-(1H-1,2,4-triazol-1-yl-methyl)-1,3-dioxolan-4-yl-methoxy]phenyl}piperazin-1-yl]-phenyl}-2-[(1,S)-1-methylpropyl]-2,4-dihydro-3H-1,2,4-triazol-3-one] | 0.25 | 0.46 ± 0.37 µM | ≦0.03 mg/ml | 1000 µg/mL (≈ 1570 µM) | ≦0.03 mg/ml | > 100 µM | > 100 µM | 28.4 ± 8.8 µM | 27.2 ± 6.7 µM | – | –
2 | CC[C@@H](C)n1ncn(-c2ccc(N3CCN(c4ccc(OC[C@H]5CO[C@@](Cn6cncn6)(c6ccccn6)O5)cc4)CC3)cc2)c1=O (relative stereo) [Example 15, cis(−)-4-{4-[4-{4-[2-(pyridin-2-yl)-2-(1H-1,2,4-triazol-1-yl-methyl)-1,3-dioxolan-4-yl-methoxy]phenyl}piperazin-1-yl]-phenyl}-2-[(1,R)-1-methylpropyl]-2,4-dihydro-3H-1,2,4-triazol-3-one] | 0.12 | 0.41 ± 0.13 µM | ≦0.03 mg/ml | 250 µg/mL (≈ 392 µM) | ≦0.03 mg/ml | 84 ± 39.4 µM | > 100 µM | 25.5 ± 4.3 µM | 26.1 ± 1.3 µM | – | –
3 | cis(±)-4-{4-[4-{4-[2-(pyridin-3-yl)-2-(1H-1,2,4-triazol-1-yl-methyl)-1,3-dioxolan-4-yl-methoxy]phenyl}-1-piperazinyl]-phenyl}-2-(1-(R,S)methylpropyl)-2,4-dihydro-3H-1,2,4-triazol-3-one [Example 11] | – | 0.7 ± 0.1 µM | – | – | – | – | – | 31.5 ± 3.9 µM | 64.2 ± 6.2 µM | – | –
4 | CCC(C)n1ncn(-c2ccc(N3CCN(c4ccc(OCC5COC(Cn6cncn6)(c6cccc[n+]6[O-])O5)cc4)CC3)cc2)c1=O (racemic) [Example 17, cis(±)-4-{4-[4-{4-[2-(1-oxy-pyridin-2-yl)-2-(1H-1,2,4-triazol-1-yl-methyl)-1,3dioxolan-4-yl-methoxy]phenyl}piperazin-1-yl]-phenyl}-2-[(1,R/S)-1-methylpropyl]-2,4-dihydro-3H-1,2,4-triazol-3-one] | – | – | – | – | – | – | – | – | – | 38000 µg/mL (≈ 58100 µM) | IC50 (minimum concentration to bring about 50% inhibition) [1, 12]: >64
5 | CC[C@@H](C)n1ncn(-c2ccc(N3CCN(c4ccc(OC[C@H]5CO[C@@](Cn6cncn6)(c6ccccn6)O5)cc4)CC3)cc2)c1=O (relative stereo) [Example 16, cis(+)-4-{4-[4-{4-[2-(pyridin-2-yl)-2-(1H-1,2,4-triazol-1-yl-methyl)-1,3-dioxolan-4-yl-methoxy]phenyl}piperazin-1-yl]-phenyl}-2-[(1,R)-1-methylpropyl]-2,4-dihydro-3H-1,2,4-triazol-3-one] | 0.25 | 0.29 ± 0.01 µM | ≦0.03 mg/ml | 500 µg/mL (≈ 784 µM) | 0.06 | > 100 µM | > 100 µM | 43.1 ± 15 µM | 37.5 ± 6.8 µM | – | –
6 | cis(±)-4-{4-[4-{4-[2-(pyridin-4-yl)-2-(1H-1,2,4-triazol-1-yl-methyl)-1,3-dioxolan-4-yl-methoxy]phenyl}-1-piperazinyl]-phenyl}-2-(1-(R,S)methylpropyl)-2,4-dihydro-3H-1,2,4-triazol-3-one [Example 10] | – | – | – | – | – | – | – | – | – | 39000 µg/mL | IC50 (minimum concentration to bring about 50% inhibition) [1, 12]: 8
7 | CC[C@H](C)n1ncn(-c2ccc(N3CCN(c4ccc(OC[C@H]5CO[C@@](Cn6cncn6)(c6ccccn6)O5)cc4)CC3)cc2)c1=O (relative stereo) [Example 14, cis(+)-4-{4-[4-{4-[2-(pyridin-2-yl)-2-(1H-1,2,4-triazol-1-yl-methyl)-1,3-dioxolan-4-yl-methoxy]phenyl}piperazin-1-yl]-phenyl}-2-[(1,S)-1-methylpropyl]-2,4-dihydro-3H-1,2,4-triazol-3-one] | 0.5 | 0.19 ± 0.08 µM | ≦0.03 mg/ml | 2000 µg/mL (≈ 3140 µM) | 0.06 | > 100 µM | > 100 µM | 27.9 ± 0.8 µM | 40 ± 11.2 µM | – | –
8 | CCC(C)n1ncn(-c2ccc(N3CCN(c4ccc(OCC5COC(Cn6cncn6)(c6cc[n+]([O-])cc6)O5)cc4)CC3)cc2)c1=O (racemic) [Example 18, cis(±)-4-{4-[4-{4-[2-(1-oxy-pyridin-4-yl)-2-(1H-1,2,4-triazol-1-yl-methyl)-1,3-dioxolan-4-yl-methoxy]phenyl}piperazin-1-yl]phenyl}-2-[(1,R/S)-1-methylpropyl]-2,4-dihydro-3H-1,2,4-triazol-3-one] | – | – | – | – | – | – | – | – | – | 78000 µg/mL (≈ 119000 µM) | –
9 | cis(±)-4-{4-[4-{4-[2-(thiazol-2-yl)-2-(1H-1,2,4-triazol-1-yl-methyl)-1,3-dioxolan-4-yl-methoxy]phenyl}-1-piperazinyl]-phenyl}-2-(1-(R,S)methylpropyl)-2,4-dihydro-3H-1,2,4-triazol-3-one [Example 12] | – | 0.3 ± 0.1 µM | – | – | – | – | – | 10.9 ± 0.4 µM | 18.2 ± 0.3 µM | – | –
10 | CCC(C)n1ncn(-c2ccc(N3CCN(c4ccc(OCC5COC(Cn6cncn6)(c6ccc(Cl)cc6Cl)O5)cc4)CC3)cc2)c1=O (stereo not shown) [Itraconazole, reference compound] | – | – | – | – | – | > 100 µM | > 100 µM | 0.2 ± 0.06 µM | 1.6 ± 0.2 µM | – | IC50 ([1]; read-out: IC50 (minimum concentration to bring about 50% inhibition), Aspergillus fumigatus strain 34): 1000 µg/mL (≈ 1420 µM); IC50 ([1]; read-out: IC50 (minimum concentration to bring about 50% inhibition), Aspergillus fumigatus strain 99-2135): 250 µg/mL (≈ 354 µM); IC50 ([3]; Candida albicans, read-out: IC50 (minimum concentration to bring about 50% inhibition)): ≤ 30 µg/mL; IC50 ([4]; Nakaseomyces glabratus, read-out: IC50 (minimum concentration to bring about 50% inhibition)): 500 µg/mL (≈ 709 µM); IC50 ([5]; Lodderomyces parapsilosis, ATCC22019, read-out: IC50 (minimum concentration to bring about 50% inhibition)): 120 µg/mL (≈ 170 µM); Surviving mice 21 days after infection [10]: 0%; Average survival (days) ± S.D. ([10]; observed until day 30): 9.2 ± 1.1 days
